This is an account of results in ChEMBL document CHEMBL3879883, “GPR 17 agonists and screening assay” (2013).

Activity calls are given as the source filed them. The calls are words filed in the database; no cut-off is given here.

Assay [1] has as its target T1, Uracil nucleotide/cysteinyl leukotriene receptor (Homo sapiens, UniProt Q13304). As to the kind of experiment: Antagonist activity at recombinant human GPR17 short isoform transfected in CHO cells assessed as inhibition of RA-II-150-mediated intracellular Ca2+ mobilization preincubated for 5 to 30 mins followed by RA-II-150 addition measured after 20 mins by oregon green 488 BAPTA-1/AM dye-based fluorescence assay. It is filed as functional, cell-based. A general note: A change in cytosolic calcium serves as a functional read-out for many receptors and channels.

The target of assay [2] is T1, Uracil nucleotide/cysteinyl leukotriene receptor. As to the kind of experiment: Agonist activity at recombinant human GPR17 short isoform transfected in CHO cells assessed as mobilization of intracellular Ca2+ after 20 mins by oregon green 488 BAPTA-1/AM dye-based fluorescence assay. It is filed as functional, cell-based.
For assay [3] the target is unchanged. As to the kind of experiment: Agonist activity at recombinant human GPR17 short isoform transfected in CHO cells assessed as inhibition of forskolin-stimulated intracellular cAMP accumulation after 30 mins by FRET assay. The format is functional, cell-based. Background: Changes in cAMP serve as a functional read-out for many G protein-coupled receptors.
The next assay deals with CHO. As to the kind of experiment: Inhibition of forskolin-stimulated intracellular cAMP accumulation in CHO cells after 30 mins by FRET assay. It is filed as functional, cell-based. The conditions noted are these: Cricetulus griseus.
In assay [4] the target is T1, Uracil nucleotide/cysteinyl leukotriene receptor. As to the kind of experiment: Agonist activity at recombinant human GPR17 short isoform transfected in CHO cells assessed as mobilization of intracellular Ca2+ at 0.3 uM after 20 mins by oregon green 488 BAPTA-1/AM dye-based fluorescence assay relative to control. The format is functional, cell-based.
A short description of assay [5]: Effect on Ca2+ mobilization in GPR17 deficient human 1321N1 cells at 0.1 uM after 20 mins by oregon green 488 BAPTA-1/AM dye-based fluorescence assay. It is filed as functional.
In assay [6] the test system is CHO-K1. As to the kind of experiment: Effect on Ca2+ mobilization in GPR17 deficient CHOK1 cells at 0.1 uM after 20 mins by oregon green 488 BAPTA-1/AM dye-based fluorescence assay. It is filed as functional, Cricetulus griseus.
Assay [7] can be described thus: Effect on Ca2+ mobilization in GPR17 deficient human 1321N1 cells at 0.3 uM after 20 mins by oregon green 488 BAPTA-1/AM dye-based fluorescence assay. The format is functional.
In assay [8] the test system is CHO-K1. As to the kind of experiment: Effect on Ca2+ mobilization in GPR17 deficient CHOK1 cells at 0.3 uM after 20 mins by oregon green 488 BAPTA-1/AM dye-based fluorescence assay. It is filed as functional, Cricetulus griseus.
Assay [9] deals with T1, Uracil nucleotide/cysteinyl leukotriene receptor. As to the kind of experiment: Agonist activity at recombinant human GPR17 short isoform transfected in human 1321N1 cells assessed as mobilization of intracellular Ca2+ at 10 uM after 20 mins by oregon green 488 BAPTA-1/AM dye-based fluorescence assay relative to control. It is filed as functional, cell-based.
Assay [10] shares this target. As to the kind of experiment: Agonist activity at recombinant human GPR17 short isoform transfected in human 1321N1 cells assessed as mobilization of intracellular Ca2+ at 1 uM after 20 mins by oregon green 488 BAPTA-1/AM dye-based fluorescence assay relative to control. The format is functional, cell-based.
Assay [11] shares this target. As to the kind of experiment: Agonist activity at recombinant human GPR17 short isoform transfected in CHO cells assessed as mobilization of intracellular Ca2+ at 1 uM after 20 mins by oregon green 488 BAPTA-1/AM dye-based fluorescence assay relative to control. It is filed as functional, cell-based.
Assay [12] can be described thus: Effect on Ca2+ mobilization in GPR17 deficient human 1321N1 cells at 1 uM after 20 mins by oregon green 488 BAPTA-1/AM dye-based fluorescence assay. It is filed as functional.
Assay [13] has as its system CHO-K1. As to the kind of experiment: Effect on Ca2+ mobilization in GPR17 deficient CHOK1 cells at 1 uM after 20 mins by oregon green 488 BAPTA-1/AM dye-based fluorescence assay. It is filed as functional, Cricetulus griseus.
Assay [14] concerns the target T1, Uracil nucleotide/cysteinyl leukotriene receptor. As to the kind of experiment: Agonist activity at recombinant human GPR17 short isoform transfected in human 1321N1 cells assessed as mobilization of intracellular Ca2+ at 3 uM after 20 mins by oregon green 488 BAPTA-1/AM dye-based fluorescence assay relative to control. It is filed as functional, cell-based.
Assay [15] shares this target. As to the kind of experiment: Agonist activity at recombinant human GPR17 short isoform transfected in CHO cells assessed as mobilization of intracellular Ca2+ at 3 uM after 20 mins by oregon green 488 BAPTA-1/AM dye-based fluorescence assay relative to control. It is filed as functional, cell-based.
Assay [16] is described as follows: Effect on Ca2+ mobilization in GPR17 deficient human 1321N1 cells at 3 uM after 20 mins by oregon green 488 BAPTA-1/AM dye-based fluorescence assay. It is filed as functional.
Assay [17] concerns CHO-K1. As to the kind of experiment: Effect on Ca2+ mobilization in GPR17 deficient CHOK1 cells at 3 uM after 20 mins by oregon green 488 BAPTA-1/AM dye-based fluorescence assay. It is filed as functional, Cricetulus griseus.
Assay [18] deals with T1, Uracil nucleotide/cysteinyl leukotriene receptor. As to the kind of experiment: Agonist activity at recombinant human GPR17 short isoform transfected in human 1321N1 cells assessed as mobilization of intracellular Ca2+ after 20 mins by oregon green 488 BAPTA-1/AM dye-based fluorescence assay. It is filed as functional, cell-based.

T1 sequence (Q13304 whole entry, canonical isoform): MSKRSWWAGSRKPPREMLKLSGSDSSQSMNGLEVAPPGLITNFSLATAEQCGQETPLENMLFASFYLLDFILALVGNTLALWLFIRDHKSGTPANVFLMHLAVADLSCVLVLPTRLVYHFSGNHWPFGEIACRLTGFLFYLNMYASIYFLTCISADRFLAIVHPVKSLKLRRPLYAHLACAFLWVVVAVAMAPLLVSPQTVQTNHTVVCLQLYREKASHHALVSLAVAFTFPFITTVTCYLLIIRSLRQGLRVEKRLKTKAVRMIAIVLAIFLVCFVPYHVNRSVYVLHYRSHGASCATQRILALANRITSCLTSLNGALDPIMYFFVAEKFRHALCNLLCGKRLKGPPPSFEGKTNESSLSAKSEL

As for `O=C(Nc1cccc2c(=O)cc(-c3nnn[nH]3)oc12)c1ccc(OCCCCc2ccccc2)cc1`, in [1], the inhibition result was “Dose-dependent effect”.
The EC50 is the concentration needed to bring the measured effect to its halfway point. On to `O=C(O)CCc1c(C(=O)O)[nH]c2cc(-c3ccccc3)cc(-c3ccccc3)c12`, for which, in [2], the EC50 is 3.02 µM.
Consider `NCC(=O)CCC(=O)O`, for which the inhibition result (in assay [3]; in the assay on CHO) was “Active” each time.
With `O=C(O)CCc1c(C(=O)O)[nH]c2cc(Br)ccc12`, the EC50 in assay [2] was 3.16 µM.
With `O=C(O)CCc1c(C(=O)O)[nH]c2cc(Cl)cc(Cl)c12`, the Activity in assay [4] was found to be 100%; in assay [5] it was 0%; with CHO-K1 [6], 0%.
With `O=C(O)CCc1c(C(=O)O)[nH]c2cc(Br)cc(Br)c12`, the Activity is 89% in assay [4], 0% in [7], 0% with CHO-K1 [8] and 106% in assay [9].
With `O=C(O)CCc1c(C(=O)O)[nH]c2cc(I)ccc12`, the EC50 in assay [2] is 0.708 µM.
Still for that read-out and setting: under `O=C(O)CCc1c(C(=O)O)[nH]c2cc(-c3ccccc3)ccc12` stands 0.724 µM.
On the same count and under the same terms, under `O=C(O)CCc1c(C(=O)O)[nH]c2cc(I)cc(I)c12` stands 4.79 µM.
With `Cc1cc(C)c2c(CCC(=O)O)c(C(=O)O)[nH]c2c1`, the Activity in assay [10] turned out to be 76%; in assay [11] it was 68%; in assay [12], 1%; in the assay on CHO-K1 [13] it was 1%.
For the compound `O=C(O)CCc1c(C(=O)O)[nH]c2cc(Cl)ccc12`, the Activity in assay [10] came out at 84%; in [11] it was 94%; in [7] it was 4%; in the assay on CHO-K1 [8] it was 1%.
Consider `O=C(O)CCc1c(C(=O)O)[nH]c2cc(F)cc(F)c12`, for which the Activity came to 77% in assay [14], 97% in [15], 2% in assay [16] and 1% in the assay on CHO-K1 [17].
Consider `O=C(O)CCc1c(C(=O)O)n(CCC(=O)O)c2cc(Cl)cc(Cl)c12`, for which the EC50 is 5.25 µM in assay [18] and 0.186 µM in [2]. In addition, the Activity in assay [10] is 80%; in assay [11], 85%; in assay [12], 1%; in the assay with CHO-K1 [13] it was 1%.
